Measurements as given in patent US5424442A, “Water-soluble methine compounds useful in photographic silver halide emulsion containing the same” (Fuji Photo Film Co., Ltd., priority 1990, dated 1995).
“And” between values parts separate entries of the source, which are not always exact repeats. Identical values can stand only once. Like-named read-outs stand apart in the source and are kept apart here. One block for each molecule: values may come before it.

Experiments:
[1] = Spectral sensitization of photographic silver halide emulsion; set-up: Yellow filter sensitivity (SY) / Red filter sensitivity (SR): scale not given here; details: for Red filter sensitivity (SR): red filter SC-60, 5 seconds exposure; for Red filter sensitivity (SR) / Yellow filter sensitivity (SY): standard point Fog+0.2; for Maximum Sensitization: spectrogram, tungsten light source of 2666° K.; for Yellow filter sensitivity (SY): yellow filter SC-50, 5 seconds exposure; for Spectral sensitization performance (in words): added to emulsion as aqueous solution or aqueous dispersion
Procedure: A silver halide emulsion comprising pure silver bromide and having a cubic crystal form (the area ratio of the plane to the entire surface area of grain being 92%) was prepared and subjected to a sulfur sensitization treatment. The average diameter of silver halide grains contained in the emulsion was 0.68 μm, and 0.74 mol of silver halide per kg of emulsion was contained in the emulsion. One kg of the emulsion was weighed in each of pots. An aqueous solution of each of the compounds of formula (I) indicated in Tables 4 and 5 was added to the pot, and the mixture was mixed with stirring at 40° C. For the purpose of comparison, comparative compounds 1 and 2 wherein counter ion was iodide were dispersed in water and added to respective pots.
Further, 4-hydroxy-6-methyl-1,3,3a,7-tetraazaindene in an amount of 0.1 g/kg of emulsion, sodium salt of 2,4-dichloro-6-hydroxy-1,3,5-triazine in an amount of 0.1 g/kg of emulsion and sodium dodecylbenzenesulfonate in an amount of 0.1 g/kg of emulsion in order were added thereto. The emulsion was then coated on a polyethylene terephthalate film to obtain a photographic material.
Each of these samples was exposed through an optical wedge for 5 seconds by using a yellow filter (SC-50, a product of Fuji Photo Film Co., Ltd.) or a red filter (SC-60, a product of Fuji Photo Film Co., Ltd.) and tungsten light (5400° K.).
A spectrogram was obtained by using a grating spectrograph having a tungsten light source of 2666° K., and the maximum sensitization was measured.
After exposure, the samples were developed at 20° C for 4 minutes by using the following developing solution. The density of each of the developed films was measured by using a densitometer (manufactured by Fuji Photo Film Co., Ltd. Spectral sensitivity, that is, yellow filter sensitivity (SY) or red filter sensitivity (SR), sensitivity (SB) in the sensitive region inherent in silver halide, and fog were determined. Sensitivity was determined when the standard point of optical density was referred to as (Fog+0.2). Composition of Developing Solution […]
Two volumes of water were added thereto to obtain a working solution when used.

[2] = Solubility in solvents (dissolution in incubator, filtration through microfilter, visible absorption); format: physicochemical; details: for Solubility in H2O / Solubility in MeOH / Solubility in Water: 720 min
Description: The solubility of some of the compounds within formula (I) was accurately measured.
The measurement of solubility was made in the following manner.

[3] = MeOH, 37° C., 12 hours, Table 1
[4] = MeOH, 37° C., 12 hours, Table 2
[5] = water, Table 3, read-out: Solubility in Water
[6] = water, H2O, 37° C., 12 hours, Table 2, read-out: Solubility in H2O

Compound: C=CCN1C=CC(=CC=c2sc(=Cc3sc4c5ccccc5ccc4[n+]3CC)n(CC=C)c2=O)c2ccccc21 [Compound 100]
Red filter sensitivity (SR) ([1]; Table 5): 1685 | Maximum Sensitization ([1]; Table 5): 715 nm

Compound: CCn1c(=Cc2oc3ccc(-c4ccccc4)cc3[n+]2CC)sc(=C2Sc3ccccc3N2C)c1=O [Compound 133]
Maximum Sensitization ([1]; Table 4): 520 nm | Yellow filter sensitivity (SY) ([1]; Table 4): 1620

Solubility in H2O ([2]; H2O, 37° C., 12 hours): 0.17 mM | Solubility in H2O ([2]; H2O, 37° C., 12 hours, Table 1): 100 µg/mL | Solubility in MeOH ([2]; MeOH, 37° C., 12 hours): 1.11 mM | Solubility in MeOH [2, 3]: 650 µg/mL | solubility at 12 h ([2]; dmso, organic solvent or mixture, DMSO, 37° C., 12 hours, read-out: Solubility in DMSO): 20000 µM and 11700 µg/mL
Compound: CCN1C(C)=CSC1=CC=c1sc(=Cc2sc3ccccc3[n+]2CC)n(CC)c1=O [Compound A, reference compound]

Solubility in MeOH [2, 4]: 100 µg/mL
Compound: CCn1c(=Cc2sc3cc(C)c(C)cc3[n+]2CC)sc(=C2Sc3ccccc3N2C)c1=O [drawing 127, reference compound]

Solubility in MeOH ([2]; MeOH, 37° C., 12 hours): 0.03 mM | Solubility in MeOH [2, 3]: 30 µg/mL
Compound: CCN1C(=CC=c2sc(=Cc3sc4c5ccccc5ccc4[n+]3CC)n(CC)c2=O)Sc2ccc3ccccc3c21 [Compound E, reference compound]

Solubility in H2O ([2]; H2O, 37° C., 12 hours): > 37 mM | Solubility in H2O ([2]; H2O, 37° C., 12 hours, Table 1): > 19000 µg/mL | Solubility in MeOH ([2]; MeOH, 37° C., 12 hours): > 33 mM | Solubility in MeOH [2, 3]: > 17000 µg/mL
Compound: CCN1C(C)=CSC1=CC=c1sc(=Cc2sc3ccccc3[n+]2CC)n(CC)c1=O [Compound 53]

solubility at 12 h [2, 5]: 1400 µg/mL
Compound: CCN1C(=CC=c2sc(=CC3=CC(=Cc4sc5cc(C)c(C)cc5[n+]4CC)Oc4ccccc43)n(CC)c2=O)Sc2ccccc21 [Compound 153]

Solubility in MeOH [2, 4]: > 10000 µg/mL | solubility at 12 h [2, 6]: 1700 µg/mL
Compound: CCn1c(=Cc2sc3cc(C)c(C)cc3[n+]2CC)sc(=C2Sc3ccccc3N2C)c1=O [Compound 110]

solubility at 12 h [2, 5]: 6800 µg/mL
Compound: CC[n+]1c(C=c2sc(=CC=C3C=CN(C)C=C3)c(=O)n2C)sc2ccccc21 [Compound 98]

solubility at 12 h [2, 5]: > 10000 µg/mL
Compound: CCn1c(=Cc2sc3c4ccccc4ccc3[n+]2CC)sc(=CC=C2SCCN2C)c1=O [Compound 45]

Compound: CCn1c(=CC2=[N+](CC)CCS2)sc(=C2Sc3ccccc3N2C)c1=O [Compound 142]
Maximum Sensitization ([1]; Table 4): 495 nm | Yellow filter sensitivity (SY) ([1]; Table 4): 300

Compound: CCN1C(=CC=c2sc(=Cc3sc(-c4ccccc4)c(-c4ccccc4)[n+]3CC)n(CC)c2=O)Oc2ccccc21 [Compound 88]
Maximum Sensitization ([1]; Table 4): 565 nm | Yellow filter sensitivity (SY) ([1]; Table 4): 2085

Solubility in MeOH ([2]; MeOH, 37° C., 12 hours): > 25 mM | Solubility in MeOH [2, 3]: > 16000 µg/mL | solubility at 12 h ([2]; water, H2O, 37° C., 12 hours, Table 1, read-out: Solubility in H2O): 6560 µg/mL | solubility at 12 h ([2]; water, H2O, 37° C., 12 hours, read-out: Solubility in H2O): 10.1 mM
Compound: CCN1C(=CC=c2sc(=Cc3sc4c5ccccc5ccc4[n+]3CC)n(CC)c2=O)Sc2ccc3ccccc3c21 [Compound 25]

solubility at 12 h ([2]; methanol, organic solvent or mixture, MeOH, 37° C., 12 hours, Table 2, read-out: Solubility in MeOH): 2800 µg/mL | solubility at 12 h [2, 6]: 300 µg/mL
Compound: CCN1C(=CC=c2sc(=Cc3cc[n+](CC)c4ccccc34)n(CC)c2=O)C=Cc2ccccc21 [reference compound]

Compound: CCCn1c(=Cc2sc3ccccc3[n+]2CC)sc(=CC=C2C=Cc3ccccc3N2CC)c1=O [Compound 96]
Red filter sensitivity (SR) ([1]; Table 5): 3600 | Maximum Sensitization ([1]; Table 5): 660 nm

solubility at 12 h [2, 5]: 2100 µg/mL
Compound: CCn1c(=CC2=CC(=Cc3sc4ccccc4[n+]3CC)Oc3ccccc32)sc(=C2Sc3ccc(OC)cc3N2C)c1=O [Compound 150]
Red filter sensitivity (SR) ([1]; Table 5): 905 | Maximum Sensitization ([1]; Table 5): 695 nm

solubility at 12 h [2, 5]: 8800 µg/mL
Compound: CN1C(=c2sc(=Cc3cc[n+](C)cc3)n(C)c2=O)Sc2ccccc21 [Compound 145]

Compound: CCn1c(=CC2=CC(=Cc3sc4cc(C)c(C)cc4[n+]3CC)CC(C)(C)C2)sc(=C2Sc3ccccc3N2C)c1=O [Compound 151]
Red filter sensitivity (SR) ([1]; Table 5): 1535 | Maximum Sensitization ([1]; Table 5): 750 nm

Compound: CCN1C(=CC=c2sc(=Cc3sc(-c4ccccc4)c(-c4ccccc4)[n+]3CC)n(CC)c2=O)Sc2ccc3ccccc3c21 [Compound 89]
Maximum Sensitization ([1]; Table 4): 640 nm | Yellow filter sensitivity (SY) ([1]; Table 4): 705

Solubility in Water ([2]; water, Table 3): 4800 µg/mL
Compound: CCN1C(=CC=c2sc(=Cc3sc4c5ccccc5ccc4[n+]3C)n(CC)c2=O)Sc2ccc3ccccc3c21 [Compound 36]

Solubility in Water ([2]; water, Table 3): > 10000 µg/mL
Compound: CCN1C(=CC=c2sc(=Cc3sc4c5ccccc5ccc4[n+]3C)n(CC)c2=O)Sc2ccc3ccccc3c21 [Compound 35]

Solubility in H2O ([2]; H2O, 37° C., 12 hours, Table 2): > 10000 µg/mL | Solubility in MeOH [2, 4]: > 10000 µg/mL
Compound: CCn1c(=Cc2oc3ccccc3[n+]2CC)sc(=C2Sc3ccccc3N2C)c1=O [Compound 128]

Water solubility (in words) ([2]; water): low solubility in water
Compound: CCN1C(=CC=c2sc(=Cc3sc(-c4ccccc4)c(-c4ccccc4)[n+]3CC)n(CC)c2=O)Sc2ccccc21 [Comparative Compound 1, reference compound]
Spectral sensitization performance (in words) [1]: the desired spectral sensitivity cannot be obtained | Maximum Sensitization ([1]; Table 4): 638 nm | Yellow filter sensitivity (SY) ([1]; Table 4): 100

Solubility in Water ([2]; water, Table 3): 3800 µg/mL
Compound: CN1C(=CC=c2sc(=Cc3sc4ccccc4[n+]3C)n(C)c2=O)Sc2ccccc21 [Compound 9]

Solubility in Water ([2]; water, Table 3): 6200 µg/mL
Compound: CN1C(=CC=c2sc(=Cc3sc4ccccc4[n+]3C)n(C)c2=O)Sc2ccccc21 [Compound 7]

Solubility in Water ([2]; water, Table 3): > 10000 µg/mL
Compound: CN1C(=CC=c2sc(=Cc3sc4ccccc4[n+]3C)n(C)c2=O)Sc2ccccc21 [Compound 10]

Compound: CCN1C(=CC=c2sc(=Cc3oc4c5ccccc5ccc4[n+]3CC)n(CC)c2=O)Sc2c1ccc1ccccc21 [Compound 86]
Maximum Sensitization ([1]; Table 4): 630 nm | Yellow filter sensitivity (SY) ([1]; Table 4): 890

Compound: CCn1c(=Cc2sc(-c3ccccc3)c(-c3ccccc3)[n+]2CC)sc(=CC=C2N(C)c3ccccc3C2(C)C)c1=O [Compound 91]
Maximum Sensitization ([1]; Table 4): 600 nm | Yellow filter sensitivity (SY) ([1]; Table 4): 1730

solubility at 12 h [2, 5]: 7200 µg/mL
Compound: CCN1C(=CC=c2sc(=Cc3sc4ccccc4[n+]3CC)n(CC)c2=O)Sc2ccc(Cl)cc21 [Compound 3]

Compound: CCn1c(=Cc2sc3cc(C)c(C)cc3[n+]2CC)sc(=C2Sc3ccc(OC)cc3N2C)c1=O [Compound 111]
Maximum Sensitization ([1]; Table 4): 540 nm | Yellow filter sensitivity (SY) ([1]; Table 4): 2085

solubility at 12 h [2, 5]: 3700 µg/mL
Compound: CCn1c(=C2CCC[n+]3c2sc2ccccc23)sc(=C2Sc3ccccc3N2C)c1=O [Compound 156]

solubility at 12 h [2, 5]: 4100 µg/mL
Compound: CCN1C(=CC=c2sc(=Cc3cc[n+](C)c4ccccc34)n(C)c2=O)N(CC)c2ccccc21 [Compound 104]

Solubility in H2O ([2]; H2O, 37° C., 12 hours, Table 2): 200 µg/mL | Solubility in MeOH [2, 4]: 2000 µg/mL
Compound: CCn1c(=Cc2oc3ccccc3[n+]2CC)sc(=C2Sc3ccccc3N2C)c1=O [Compound D, reference compound]

solubility at 12 h [2, 5]: 8100 µg/mL
Compound: CCn1c(=Cc2sc3ccccc3[n+]2CC)sc(=C2C=Cc3ccccc3N2C)c1=O [Compound 147]

Solubility in Water ([2]; water, Table 3): 7100 µg/mL
Compound: CCN1C(=CC=c2sc(=Cc3sc4c5ccccc5ccc4[n+]3C)n(CC)c2=O)Sc2ccc3ccccc3c21 [Compound 34]

Compound: CCCn1c(=Cc2oc3cc(C)c(C)cc3[n+]2CC)sc(=CC=C2C=CN(CC)c3ccccc32)c1=O [Compound 101]
Red filter sensitivity (SR) ([1]; Table 5): 2270 | Maximum Sensitization ([1]; Table 5): 695 nm

solubility at 12 h [2, 5]: 5700 µg/mL
Compound: CCn1c(=Cc2sc3ccccc3[n+]2C)sc(=C2Oc3ccc4ccccc4c3N2C)c1=O [Compound 127]

solubility at 12 h [2, 5]: 3200 µg/mL
Compound: CCn1c(=CC2=CC(=Cc3sc4ccccc4[n+]3CC)CC(C)(C)C2)sc(=C2Sc3ccccc3N2C)c1=O [Compound 148]

Water solubility (in words) ([2]; water): low solubility in water
Compound: CCn1c(=CC2=CC(=Cc3sc4cc(C)c(C)cc4[n+]3CC)CC(C)(C)C2)sc(=C2Sc3ccccc3N2C)c1=O [Comparative Compound 2, reference compound]
Spectral sensitization performance (in words) [1]: the desired spectral sensitivity cannot be obtained | Red filter sensitivity (SR) ([1]; Table 5): 100 | Maximum Sensitization ([1]; Table 5): 747 nm

Solubility in MeOH [2, 4]: 150 µg/mL
Compound: CCn1c(=Cc2oc3c4ccccc4ccc3[n+]2CC)sc(=C2Sc3ccccc3N2C)c1=O [drawing 128, reference compound]

Solubility in Water ([2]; water, Table 3): 5300 µg/mL
Compound: CCN1C(=CC=c2sc(=Cc3sc4c5ccccc5ccc4[n+]3C)n(CC)c2=O)Sc2ccc3ccccc3c21 [Compound 33]
